Molecular target: T1, Aldehyde dehydrogenase, dimeric NADP-preferring (Homo sapiens, UniProt P30838)
T1 sequence (P30838 whole entry): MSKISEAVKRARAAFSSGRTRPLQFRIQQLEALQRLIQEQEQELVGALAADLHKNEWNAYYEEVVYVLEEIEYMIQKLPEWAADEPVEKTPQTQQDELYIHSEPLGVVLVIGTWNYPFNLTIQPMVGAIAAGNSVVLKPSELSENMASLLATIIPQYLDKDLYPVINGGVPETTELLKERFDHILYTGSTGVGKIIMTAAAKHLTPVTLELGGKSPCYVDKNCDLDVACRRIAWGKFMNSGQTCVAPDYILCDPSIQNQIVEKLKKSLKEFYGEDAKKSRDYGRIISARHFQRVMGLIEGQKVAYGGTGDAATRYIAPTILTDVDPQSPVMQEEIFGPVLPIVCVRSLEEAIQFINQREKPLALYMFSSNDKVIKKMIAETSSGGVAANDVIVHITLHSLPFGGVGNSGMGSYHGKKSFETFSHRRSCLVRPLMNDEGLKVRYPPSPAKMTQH
Test: Inhibition of recombinant human ALDH3A1 using benzaldehyde as substrate preincubated for 2 mins with NAD+ followed by substrate addition by UV-Vis spectrophotometric analysis

## Cn1c(=O)c2c(nc(SCC(N)=O)n2Cc2ccccc2F)n(C)c1=O
  IC50: > 100 µM
